Test results reported in PubChem BioAssay (NCI).
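96-well plates; 48 h exposure; 5 concentrations. Endpoints by linear interpolation between flanking doses. Not reached: highest tested concentration assigned. TGI marks complete inhibition of growth.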

Key:
Test in all cases: inhibition of tumour cell growth, NCI panel, 48 h
[1] = system: M14 melanoma
[2] = system: HCT-15 colon
[3] = system: CCRF-CEM leukemia
[4] = system: SK-MEL-2 melanoma
[5] = system: 786-0 renal
[6] = system: NCI-H23 lung
[7] = system: OVCAR-5 ovarian
[8] = system: MALME-3M melanoma
[9] = system: HOP-62 NSCLC
[10] = system: U251 CNS
[11] = system: OVCAR-3 ovarian
[12] = system: SK-OV-3 ovarian
[13] = system: NCI-H226 lung

Structure (SMILES) | TGI [1] | TGI [2] | TGI [3] | TGI [4] | TGI [5] | TGI [6] | TGI [7] | TGI [8] | TGI [9] | TGI [10] | TGI [11] | TGI [12] | TGI [13]
O=C(CNC(=O)OCc1ccccc1)NCCCCC(NC(=O)OCc1ccccc1)C(=O)O (configuration not stated) | > 100 µM | > 100 µM | > 100 µM | > 100 µM | > 100 µM | > 100 µM | > 100 µM | > 100 µM | > 100 µM | > 100 µM | > 100 µM | > 100 µM | > 100 µM
CCOP(=O)(CS(C)=O)O[C@@H]1C[C@H](C)CC[C@H]1C(C)C (some centres not stated) | 31.2 µM | 7.81 µM | 11.5 µM | 12.8 µM | 6.35 µM | 17.6 µM | 15.2 µM | 26.8 µM | 21.4 µM | 16.1 µM | 15.7 µM | 19.9 µM | 12.2 µM
COc1ccccc1NC(=O)C(C#N)=C(SC)SC | > 100 µM | > 100 µM | > 100 µM | > 100 µM | > 100 µM | > 100 µM | > 100 µM | > 100 µM | > 100 µM | > 100 µM | > 100 µM | > 100 µM | > 100 µM
CCCCOC(=O)/C(CC(=O)C=C(C)C)=N\NS(=O)(=O)c1ccc(C)cc1 | > 100 µM | > 100 µM | > 100 µM | > 100 µM | > 100 µM | > 100 µM | > 100 µM | > 100 µM | > 100 µM | > 100 µM | > 100 µM | > 100 µM | > 100 µM
CCCCCCN(C(=O)Oc1ccccc1)C(C#N)c1ccccc1 (configuration not stated) | > 100 µM | > 100 µM | > 100 µM | > 100 µM | > 100 µM | > 100 µM | > 100 µM | > 100 µM | > 100 µM | > 100 µM | > 100 µM | > 100 µM | > 100 µM
CCOC(=O)CNC(=O)C(CSC(=O)N(O)c1ccc(Br)cc1)NC(=O)CCC(N)C(=O)OCC (configuration not stated) | > 50 µM | > 50 µM | > 50 µM | > 50 µM | > 50 µM | > 50 µM | > 50 µM | > 50 µM | > 50 µM | > 50 µM | > 50 µM | > 50 µM | > 50 µM
Cc1ccc2c(c1)C(C1Cc3c(C)cccc3C1=O)OC2=O (configuration not stated) | > 100 µM | > 100 µM | > 100 µM | > 100 µM | > 100 µM | > 100 µM | > 100 µM | > 100 µM | > 100 µM | > 100 µM | > 100 µM | > 100 µM | > 100 µM
O=C(O)CCC(=O)Nc1ccc2c(c1)S(=O)(=O)N(CC(=O)O)C2=O | > 100 µM | > 100 µM | > 100 µM | > 100 µM | > 100 µM | > 100 µM | > 100 µM | > 100 µM | > 100 µM | > 100 µM | > 100 µM | > 100 µM | > 100 µM
O=C(/C=C/c1ccc(O)c(O)c1)NC(CO)C(=O)O (configuration not stated) | > 100 µM | > 100 µM | > 100 µM | > 100 µM | > 100 µM | > 100 µM | > 100 µM | > 100 µM | > 100 µM | > 100 µM | > 100 µM | > 100 µM | > 100 µM
